Source: ChEMBL document CHEMBL2413070, “Histone Deacetylase 4 (HDAC4) Inhibitors: A Promising Treatment for Huntington's Disease” (ACS Med Chem Lett, 2013)

How the values were obtained:
[1] = molecular target: T1, Protein deacetylase HDAC6 (Homo sapiens, UniProt Q9UBN7); assay: Inhibition of recombinant full length human HDAC-6 expressed in baculovirus expression system using acetyl-Gly-Ala-Lys(acetyl)-AMC as substrate after 2 hrs by fluorescence microplate reader analysis
T1 sequence (Q9UBN7 whole entry): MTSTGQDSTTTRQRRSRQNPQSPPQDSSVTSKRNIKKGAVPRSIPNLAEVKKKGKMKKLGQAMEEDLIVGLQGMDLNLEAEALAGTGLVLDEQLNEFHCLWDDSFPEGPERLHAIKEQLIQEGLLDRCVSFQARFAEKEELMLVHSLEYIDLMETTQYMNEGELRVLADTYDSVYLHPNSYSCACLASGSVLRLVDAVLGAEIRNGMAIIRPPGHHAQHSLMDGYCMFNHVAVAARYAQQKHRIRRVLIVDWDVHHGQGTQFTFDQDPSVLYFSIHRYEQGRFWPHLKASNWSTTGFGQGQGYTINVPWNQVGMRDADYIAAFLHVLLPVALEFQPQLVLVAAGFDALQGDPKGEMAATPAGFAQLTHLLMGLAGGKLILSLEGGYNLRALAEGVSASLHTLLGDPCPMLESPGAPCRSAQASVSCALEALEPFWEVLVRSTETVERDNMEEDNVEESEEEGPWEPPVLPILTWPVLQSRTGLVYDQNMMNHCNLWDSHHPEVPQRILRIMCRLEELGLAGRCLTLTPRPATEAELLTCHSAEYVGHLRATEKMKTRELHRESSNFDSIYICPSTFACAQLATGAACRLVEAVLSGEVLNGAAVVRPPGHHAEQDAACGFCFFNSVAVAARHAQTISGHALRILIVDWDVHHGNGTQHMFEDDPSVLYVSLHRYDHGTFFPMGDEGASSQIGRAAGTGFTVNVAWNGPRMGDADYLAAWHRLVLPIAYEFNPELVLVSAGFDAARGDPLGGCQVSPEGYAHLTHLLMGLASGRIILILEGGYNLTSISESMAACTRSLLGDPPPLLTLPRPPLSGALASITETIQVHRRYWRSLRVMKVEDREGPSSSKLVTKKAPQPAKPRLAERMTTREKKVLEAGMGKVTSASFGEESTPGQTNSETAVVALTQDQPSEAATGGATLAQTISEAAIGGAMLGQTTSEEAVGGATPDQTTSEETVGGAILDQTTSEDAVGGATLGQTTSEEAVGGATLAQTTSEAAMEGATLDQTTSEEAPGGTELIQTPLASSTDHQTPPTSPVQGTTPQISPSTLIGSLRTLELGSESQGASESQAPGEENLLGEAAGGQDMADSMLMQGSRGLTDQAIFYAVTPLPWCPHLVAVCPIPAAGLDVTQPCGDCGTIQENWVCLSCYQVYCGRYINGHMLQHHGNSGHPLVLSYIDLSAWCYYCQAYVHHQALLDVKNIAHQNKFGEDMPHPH

Histone deacetylase 1 = Histone deacetylase 1 (Homo sapiens, UniProt Q13547); assay: Inhibition of recombinant full length human HDAC-1 expressed in baculovirus expression system using acetyl-Gly-Ala-Lys(acetyl)-AMC as substrate after 2 hrs by fluorescence microplate reader analysis
Sequence of Histone deacetylase 1 (Q13547 whole entry): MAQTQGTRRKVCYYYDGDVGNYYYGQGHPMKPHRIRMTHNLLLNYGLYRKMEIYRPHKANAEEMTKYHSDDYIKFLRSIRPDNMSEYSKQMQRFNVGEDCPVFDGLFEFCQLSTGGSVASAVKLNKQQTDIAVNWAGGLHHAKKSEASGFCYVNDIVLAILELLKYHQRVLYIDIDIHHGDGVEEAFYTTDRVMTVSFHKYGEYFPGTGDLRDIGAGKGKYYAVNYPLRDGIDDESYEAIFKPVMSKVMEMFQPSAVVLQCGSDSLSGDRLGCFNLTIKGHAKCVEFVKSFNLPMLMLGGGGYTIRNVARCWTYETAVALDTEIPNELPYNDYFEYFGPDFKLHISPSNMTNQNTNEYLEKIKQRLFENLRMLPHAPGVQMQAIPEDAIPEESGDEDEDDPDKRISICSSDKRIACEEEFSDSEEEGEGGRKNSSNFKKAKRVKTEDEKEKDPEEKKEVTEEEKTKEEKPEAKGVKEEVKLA

CCN(CC)C[C@@H](C)NC(=O)c1ccc(-c2noc(C(F)(F)F)n2)nc1
IC50 [1]: > 10 µM
IC50 (Histone deacetylase 1): > 10 µM

C[C@H](CN(C)Cc1ccccc1)NC(=O)c1ccc(-c2noc(C(F)(F)F)n2)nc1
IC50 [1]: > 10 µM
IC50 (Histone deacetylase 1): > 10 µM
